Laboratory results taken from PMC8877061, “Antifungal and Antibiofilm Activity of Cyclic Temporin L Peptide Analogues against Albicans and Non-Albicans Candida Species” (Pharmaceutics, 2022).
Where two headings read alike, the source gives them in different places. Positions of bridges follow the written chain, without caps; N, C: chain ends. Non-standard residues stand in square brackets, D forms with d. Residues, ends and D or L forms follow the SMILES beside them. Triazole bridges read from a SMILES are 1,4-linked. dLys(N3) = [N-]=[N+]=NCCCC[C@@H](N)C(=O)O; Lys(N3) = [N-]=[N+]=NCCCC[C@H](N)C(=O)O; S5 = C=CCCC[C@](C)(N)C(=O)O; dPra = C#CC[C@@H](N)C(=O)O; Pra = C#CC[C@H](N)C(=O)O

Assays:
[1] = system: C. albicans ATCC 90028; type: cell-based
Description: C. albicans ATCC 90028, C. auris DSM 21092, C. glabrata DSM 11226, C. tropicalis DSM11951 and C. parapsilosis DSM 4874 grown on YPD Agar (1% w/v yeast extract, 2% w/v peptone, 2% w/v glucose, 1.5% Agar) were cultured in Tryptone soya broth supplemented with 0.1% glucose for 16–18 h at 37 °C, washed twice using sterile phosphate-buffered saline (PBS) and standardized to […] as required for the experiments. RPMI1640 medium (Thermo Fisher Scientific, Waltham, MA, USA) buffered to a pH of 7.0 with 0.165 M MOPS was used for growing the biofilms of all Candida species.
The antifungal activity of peptides against all five Candida species was determined according to CLSI-M27-A3 [33], as reported previously. Briefly, the compounds were tested at concentrations ranging from […] to 50 μM, and the organism suspensions were adjusted to an inoculum of 10^6 cell/mL at OD 590 nm in RPMI 1640, added to the 96-well plate and incubated at 37 °C for 24 h. The minimum inhibitory concentration (MIC) values were determined as the lowest concentration inhibiting fungal growth at 590 nm using a microplate reader (Synergy™ H4; BioTek Instruments, Inc., Winooski, VT, USA). […] The MFC was the lowest concentration that yielded no colony growth on the agar. The MFC/MIC ratio was calculated to determine whether the substance had fungistatic (MFC/MIC ≥ 4) or fungicidal (MFC/MIC < 4) activity.

[2] = system: C. parapsilosis DSM 5784; type: cell-based
[3] = CLSI-M27-A3, RPMI 1640, 10^6 cell/mL, 37 °C, 24 h, read at 590 nm, tested 6.5 to 50 μM

MIC, C. albicans ATCC 90028 ([1]; ATCC 90028, 24 h) | MIC, C. parapsilosis DSM 5784 ([2]; DSM 5784, 24 h) | Structure (SMILES) | MIC, C. albicans ATCC 90028 [1, 3] | MIC, C. parapsilosis DSM 5784 [2, 3]
>50 µM | >50 µM | CC[C@H](C)[C@H](NC(=O)[C@H](CCCNC(=N)N)NC(=O)CNC(=O)[C@H]1CCC(=O)NCCCC[C@H](NC(=O)[C@H](Cc2c[nH]c3ccccc23)NC(=O)[C@@H]2CCCN2C(=O)[C@@H](NC(=O)[C@@H](N)Cc2ccccc2)C(C)C)C(=O)N[C@@H](CO)C(=O)N[C@@H](CCCCN)C(=O)N[C@@H](Cc2ccccc2)C(=O)N1)C(=O)N[C@@H](CC(C)C)C(N)=O [compound 4] (H-FVPWKSKF[dE]GRIL-NH2; lactam 5-9; N-terminus assumed) |  | 
>50 µM | >50 µM | CC[C@H](C)[C@H](NC(=O)[C@H](CCCNC(=N)N)NC(=O)CNC(=O)[C@@H](CC(C)C)NC(=O)[C@@H]1CCC(=O)NCCCC[C@H](NC(=O)[C@@H]2CCCN2C(=O)[C@@H](NC(=O)[C@@H](N)Cc2ccccc2)C(C)C)C(=O)N[C@@H](Cc2ccccc2)C(=O)N[C@@H](CO)C(=O)N[C@@H](CCCCN)C(=O)N1)C(=O)N[C@@H](CC(C)C)C(N)=O [compound 5] (H-FVPKFSKE[dL]GRIL-NH2; lactam 4-8; N-terminus assumed) |  | 
>50 µM | >50 µM | CC[C@H](C)[C@H](NC(=O)[C@H](CCCNC(=N)N)NC(=O)[C@@H]1CCCCn2cc(nn2)C[C@H](NC(=O)[C@H](Cc2ccccc2)NC(=O)[C@H](Cc2c[nH]c3ccccc23)NC(=O)[C@@H]2CCCN2C(=O)[C@@H](NC(=O)[C@@H](N)Cc2ccccc2)C(C)C)C(=O)N[C@@H](CCCCN)C(=O)N[C@@H](Cc2ccccc2)C(=O)N[C@H](CC(C)C)C(=O)N1)C(=O)N[C@@H](CC(C)C)C(N)=O [compound 8] (H-FVPWF[Pra]KF[dL][Lys(N3)]RIL-NH2; triazole 6-10; N-terminus assumed) |  | 
>50 µM | >50 µM | CC[C@H](C)[C@H](NC(=O)[C@H](CCCNC(=N)N)NC(=O)CNC(=O)[C@H]1CCCCn2cc(nn2)C[C@H](NC(=O)[C@H](Cc2c[nH]c3ccccc23)NC(=O)[C@@H]2CCCN2C(=O)[C@@H](NC(=O)[C@@H](N)Cc2ccccc2)C(C)C)C(=O)N[C@@H](CO)C(=O)N[C@@H](CCCCN)C(=O)N[C@@H](Cc2ccccc2)C(=O)N1)C(=O)N[C@@H](CC(C)C)C(N)=O [compound 9] (H-FVPW[Pra]SKF[dLys(N3)]GRIL-NH2; triazole 5-9; N-terminus assumed) |  | 
>50 µM | >50 µM | CC[C@H](C)[C@H](NC(=O)[C@H](CCCNC(=N)N)NC(=O)CNC(=O)[C@@H](CC(C)C)NC(=O)[C@@H]1CCCCn2cc(nn2)C[C@H](NC(=O)[C@@H]2CCCN2C(=O)[C@@H](NC(=O)[C@@H](N)Cc2ccccc2)C(C)C)C(=O)N[C@@H](Cc2ccccc2)C(=O)N[C@@H](CO)C(=O)N[C@@H](CCCCN)C(=O)N1)C(=O)N[C@@H](CC(C)C)C(N)=O [compound 10] (H-FVP[Pra]FSK[Lys(N3)][dL]GRIL-NH2; triazole 4-8; N-terminus assumed) |  | 

More lines, now with the values behind:

Structure (SMILES) | MIC, C. albicans ATCC 90028 ([1]; ATCC 90028, 24 h) | MIC, C. parapsilosis DSM 5784 ([2]; DSM 5784, 24 h) | MIC, C. albicans ATCC 90028 [1, 3] | MIC, C. parapsilosis DSM 5784 [2, 3]
CC[C@H](C)[C@@H]1NC(=O)[C@H](CCCNC(=N)N)NC(=O)CNC(=O)[C@H](NC(=O)[C@H](Cc2ccccc2)NC(=O)[C@H](CCCCN)NC(=O)[C@H](CO)NC(=O)[C@H](Cc2ccccc2)NC(=O)[C@H](Cc2c[nH]c3ccccc23)NC(=O)[C@@H]2CCCN2C(=O)[C@@H](NC(=O)[C@@H](N)Cc2ccccc2)C(C)C)CCCCNC(=O)CC[C@@H](C(N)=O)NC1=O [compound 1] (H-FVPWFSKF[dK]GRIE-NH2; lactam 9-13; N-terminus assumed) |  |  | >50 µM | >50 µM
CC(C)C[C@H](NC(=O)[C@@H]1CCC(=O)NCCCC[C@H](NC(=O)[C@H](CCCCN)NC(=O)[C@H](CO)NC(=O)[C@H](Cc2ccccc2)NC(=O)[C@H](Cc2c[nH]c3ccccc23)NC(=O)[C@@H]2CCCN2C(=O)[C@@H](NC(=O)[C@@H](N)Cc2ccccc2)C(C)C)C(=O)N[C@H](CC(C)C)C(=O)NCC(=O)N[C@@H](CCCNC(=N)N)C(=O)N1)C(N)=O [compound 2] (H-FVPWFSKK[dL]GREL-NH2; lactam 8-12; N-terminus assumed) | >50 µM | >50 µM |  | 
CC[C@H](C)[C@@H]1NC(=O)[C@H](CCCNC(=N)N)NC(=O)CNC(=O)[C@H](NC(=O)[C@H](Cc2ccccc2)NC(=O)[C@H](CCCCN)NC(=O)[C@H](CO)NC(=O)[C@H](Cc2ccccc2)NC(=O)[C@H](Cc2c[nH]c3ccccc23)NC(=O)[C@@H]2CCCN2C(=O)[C@@H](NC(=O)[C@@H](N)Cc2ccccc2)C(C)C)Cc2cn(nn2)CCCC[C@@H](C(N)=O)NC1=O [compound 6] (H-FVPWFSKF[dPra]GRI[Lys(N3)]-NH2; triazole 9-13; N-terminus assumed) | >50 µM | >50 µM |  | 
CC(C)C[C@H](NC(=O)[C@@H]1CCC(=O)NCCCC[C@H](NC(=O)[C@H](Cc2c[nH]c3ccccc23)NC(=O)[C@@H]2CCCN2C(=O)[C@@H](NC(=O)[C@@H](N)Cc2ccccc2)C(C)C)C(=O)N[C@@H](CO)C(=O)N[C@@H](CCCCN)C(=O)N[C@@H](Cc2ccccc2)C(=O)N[C@H](CC(C)C)C(=O)NCC(=O)N[C@@H](CCCNC(=N)N)C(=O)N1)C(N)=O [compound 12] (H-FVPWKSKF[dL]GREL-NH2; lactam 5-12; N-terminus assumed) | >50 µM | >50 µM |  | 
CC[C@H](C)[C@@H]1NC(=O)[C@H](CCCNC(=N)N)NC(=O)CNC(=O)[C@@H](CC(C)C)NC(=O)[C@H](Cc2ccccc2)NC(=O)[C@H](CCCCN)NC(=O)[C@@H](NC(=O)[C@H](Cc2ccccc2)NC(=O)[C@H](Cc2c[nH]c3ccccc23)NC(=O)[C@@H]2CCCN2C(=O)[C@@H](NC(=O)[C@@H](N)Cc2ccccc2)C(C)C)Cc2cn(nn2)CCCC[C@@H](C(N)=O)NC1=O [compound 13] (H-FVPWF[Pra]KF[dL]GRI[Lys(N3)]-NH2; triazole 6-13; N-terminus assumed) | >50 µM | >50 µM |  | 
CC(C)C[C@H](NC(=O)[C@@H]1CCCCn2cc(nn2)C[C@H](NC(=O)[C@H](Cc2c[nH]c3ccccc23)NC(=O)[C@@H]2CCCN2C(=O)[C@@H](NC(=O)[C@@H](N)Cc2ccccc2)C(C)C)C(=O)N[C@@H](CO)C(=O)N[C@@H](CCCCN)C(=O)N[C@@H](Cc2ccccc2)C(=O)N[C@H](CC(C)C)C(=O)NCC(=O)N[C@@H](CCCNC(=N)N)C(=O)N1)C(N)=O [compound 14] (H-FVPW[Pra]SKF[dL]GR[Lys(N3)]L-NH2; triazole 5-12; N-terminus assumed) | >50 µM | >50 µM |  | 
CC[C@H](C)[C@H](NC(=O)[C@H](CCCNC(=N)N)NC(=O)[C@]1(C)CCCC=CCCC[C@](C)(NC(=O)[C@H](Cc2ccccc2)NC(=O)[C@H](Cc2c[nH]c3ccccc23)NC(=O)[C@@H]2CCCN2C(=O)[C@@H](NC(=O)[C@@H](N)Cc2ccccc2)C(C)C)C(=O)N[C@@H](CCCCN)C(=O)N[C@@H](Cc2ccccc2)C(=O)N[C@H](CC(C)C)C(=O)N1)C(=O)N[C@@H](CC(C)C)C(N)=O [compound 17] (H-FVPWF[S5]KF[dL][S5]RIL-NH2; staple 6-10; N-terminus assumed) | >50 µM | >50 µM |  | 
